The values below come from ChEMBL document CHEMBL5620405, “A platform for the rapid synthesis of molecular glues (Rapid-Glue) under miniaturized conditions for direct biological screening” (Eur J Med Chem, 2023).

Active and inactive are the calls of the source. No cut-off for these calls is given here.

The subject of assay [1] is RS4-11. Put plainly: Antiproliferative activity against human RS4-11 cells assessed as cell viability at 1 uM measured after 72 hrs by Alamar blue assay. Type of assay: functional. Particulars: read-out: Activity.
Assay [2] deals with MOLT-4. Nature of the assay: Antiproliferative activity against human MOLT-4 cells assessed as cell viability at 1 uM measured after 72 hrs by Alamar blue assay. The conditions noted are these: read-out: Activity. Type of assay: functional. (In general: The colour change of resazurin is a common sign of viable cells or microbes.)
Assay [3] deals with RS4-11. Put plainly: Antiproliferative activity against human RS4-11 cells assessed as reduction in cell viability measured after 72 hrs by Alamar blue assay. Type of assay: functional, cell-based. The conditions noted are these: RS4-11, 72 h.
The test system of assay [4] is MOLT-4. Nature of the assay: Antiproliferative activity against human MOLT-4 cells assessed as reduction in cell viability measured after 72 hrs by Alamar blue assay. Type of assay: functional, cell-based. The conditions noted are these: MOLT-4, 72 h.
The subject of the next assay is MM1.S. Nature of the assay: Antiproliferative activity against human MM1.S cells assessed as reduction in cell viability measured after 72 hrs by Alamar blue assay. Type of assay: functional, cell-based.
Assay [5] concerns RS4-11. Put plainly: Antiproliferative activity against human RS4-11 cells assessed as cell viability at 0.5 uM measured after 72 hrs by Alamar blue assay. It is filed as functional. Particulars: read-out: Activity.
The test system of assay [6] is RS4-11. Put plainly: Antiproliferative activity against human RS4-11 cells assessed as cell viability at 0.1 uM measured after 72 hrs by Alamar blue assay. Type of assay: functional. Particulars: read-out: Activity.
Assay [7] addresses T1, Protein cereblon/Eukaryotic peptide chain release factor GTP-binding subunit ERF3A (Homo sapiens, UniProt Q96SW2+P15170). Put plainly: Molecular glue activity at CRBN/GSPT1 in human RS4-11 cells assessed as induction of GSPT1 degradation at 1 uM measured after 4 hrs by western blot analysis. It is filed as cell-based. (In general: A western blot detects proteins with antibodies after separation by electrophoresis.)
Target sequence in this assay (P15170 whole entry, looked up): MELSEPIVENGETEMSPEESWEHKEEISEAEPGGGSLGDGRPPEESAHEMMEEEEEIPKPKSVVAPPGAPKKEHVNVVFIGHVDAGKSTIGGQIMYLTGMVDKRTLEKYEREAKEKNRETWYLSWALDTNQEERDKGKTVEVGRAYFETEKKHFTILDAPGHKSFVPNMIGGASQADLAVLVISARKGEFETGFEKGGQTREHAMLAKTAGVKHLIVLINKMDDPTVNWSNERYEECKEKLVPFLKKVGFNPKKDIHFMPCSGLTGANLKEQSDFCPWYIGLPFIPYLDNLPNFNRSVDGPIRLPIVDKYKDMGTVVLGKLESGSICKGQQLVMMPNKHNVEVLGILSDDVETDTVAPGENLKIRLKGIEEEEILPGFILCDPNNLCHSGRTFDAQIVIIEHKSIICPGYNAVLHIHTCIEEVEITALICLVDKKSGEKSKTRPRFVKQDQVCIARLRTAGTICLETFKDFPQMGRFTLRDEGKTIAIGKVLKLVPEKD
Target sequence in this assay (Q96SW2 whole entry, looked up): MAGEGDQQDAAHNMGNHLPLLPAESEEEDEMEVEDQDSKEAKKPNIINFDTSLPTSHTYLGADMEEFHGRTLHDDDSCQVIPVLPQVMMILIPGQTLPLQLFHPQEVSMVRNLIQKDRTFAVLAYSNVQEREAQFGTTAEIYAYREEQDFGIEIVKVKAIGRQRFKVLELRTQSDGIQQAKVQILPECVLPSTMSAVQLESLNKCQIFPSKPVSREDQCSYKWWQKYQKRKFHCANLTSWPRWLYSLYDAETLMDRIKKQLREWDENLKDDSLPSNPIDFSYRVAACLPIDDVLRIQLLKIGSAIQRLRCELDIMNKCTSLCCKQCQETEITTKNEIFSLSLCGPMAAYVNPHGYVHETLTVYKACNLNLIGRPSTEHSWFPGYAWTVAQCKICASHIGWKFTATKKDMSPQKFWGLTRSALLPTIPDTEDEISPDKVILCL

Assay [8] deals with T1, Protein cereblon/Eukaryotic peptide chain release factor GTP-binding subunit ERF3A. Nature of the assay: Molecular glue activity at CRBN/GSPT1 in human RS4-11 cells assessed as induction of GSPT1 degradation at 0.1 uM measured after 24 hrs by western blot analysis. Type of assay: cell-based.
Target sequence in this assay (P15170 whole entry, looked up): as the sequence (P15170 whole entry, looked up) above
Target sequence in this assay (Q96SW2 whole entry, looked up): as the sequence (Q96SW2 whole entry, looked up) above
Assay [9] shares this target. Put plainly: Molecular glue activity at CRBN/GSPT1 in human RS4-11 cells assessed as induction of GSPT1 degradation measured after 12 hrs by western blot analysis. The conditions noted are these: dose 0.0001-10 µM. It is filed as cell-based.
Target sequence in this assay (P15170 whole entry, looked up): as the sequence (P15170 whole entry, looked up) above
Target sequence in this assay (Q96SW2 whole entry, looked up): as the sequence (Q96SW2 whole entry, looked up) above
Assay [10] has the same target. Put plainly: Molecular glue activity at CRBN/GSPT1 in human RS4-11 cells assessed as induction of GSPT1 degradation at 1 uM by western blot analysis. Type of assay: cell-based. The conditions noted are these: time 0.5-24 hrs, TDE = time-dependent effect.
Target sequence in this assay (P15170 whole entry, looked up): as the sequence (P15170 whole entry, looked up) above
Target sequence in this assay (Q96SW2 whole entry, looked up): as the sequence (Q96SW2 whole entry, looked up) above
Assay [11] has the same target. Put plainly: Molecular glue activity at CRBN/GSPT1 in human RS4-11 cells assessed as induction of GSPT1 degradation by western blot analysis. Type of assay: cell-based.
Target sequence in this assay (Q96SW2 whole entry): as the sequence (Q96SW2 whole entry, looked up) above
Target sequence in this assay (P15170 whole entry): as the sequence (P15170 whole entry, looked up) above
Assay [12] shares this target. Nature of the assay: Molecular glue activity at CRBN/GSPT1 in human RS4-11 cells assessed as induction of GSPT1 degradation by measuring reduction in GSPT1 level measured for 6 hrs by western blot analysis. Type of assay: cell-based. Also on record: scale not given: the % may be the effect or the level left.
Target sequence in this assay (P15170 whole entry, looked up): as above
Target sequence in this assay (Q96SW2 whole entry, looked up): as the sequence (Q96SW2 whole entry, looked up) above
Assay [13] has the same target. Put plainly: Molecular glue activity at CRBN/GSPT1 in human RS4-11 cells assessed as downregulation of GSPT1 expression at 1 uM measured after 6 hrs by TMT-mass spectrometry. It is filed as cell-based.
Target sequence in this assay (P15170 whole entry, looked up): as the sequence (P15170 whole entry, looked up) above
Target sequence in this assay (Q96SW2 whole entry, looked up): as the sequence (Q96SW2 whole entry, looked up) above

Turning to `O=C(COc1ccc(-c2ccc3c(c2)CN(C2CCC(=O)NC2=O)C3=O)cc1)N/N=C/c1c(C(F)(F)F)ccc(Cl)c1Cl` (centres undefined), the values for the viability at 1 µM with RS4-11 [1] and in the assay on MOLT-4 [2] were 54% and 67%, respectively.

For `CN1CCN(c2ncc(/C=N/NC(=O)COc3ccccc3-c3cccc4c3CN(C3CCC(=O)N(C)C3=O)C4=O)s2)CC1` (centres undefined), the viability at 1 µM with RS4-11 [1] is 96%; in the assay with MOLT-4 [2], greater than 100%. The IC50 with RS4-11 [3] was greater than 1000 nM; with MOLT-4 [4], greater than 10000 nM; in the assay with MM1.S it was greater than 10000 nM.

In the case of `CN1C(=O)CCC(N2Cc3cc(-c4ccc(OCC(=O)N/N=C/c5c(C(F)(F)F)ccc(Cl)c5Cl)cc4)ccc3C2=O)C1=O` (centres undefined), the viability at 1 µM in the assay with RS4-11 [1] and in the assay with MOLT-4 [2] was greater than 100% each time.

Regarding `O=C(COc1ccc(-c2ccc3c(c2)CN(C2CCC(=O)NC2=O)C3=O)cc1)N/N=C/c1c(Cl)ccc(C(F)(F)F)c1Cl` (centres undefined), the viability at 1 µM amounted to 47% in the assay on RS4-11 [1] and 74% in the assay on MOLT-4 [2].

As for `CN1C(=O)CCC(N2Cc3cc(-c4ccc(OCC(=O)N/N=C/c5c(Cl)ccc(C(F)(F)F)c5Cl)cc4)ccc3C2=O)C1=O` (centres undefined), the viability at 1 µM in the assay on RS4-11 [1] and in the assay on MOLT-4 [2] was greater than 100% throughout.

On to `Cc1nc2ccccn2c1/C=N/NC(=O)COc1ccccc1-c1cccc2c1CN(C1CCC(=O)N(C)C1=O)C2=O` (centres undefined), for which the figures for the viability at 1 µM with RS4-11 [1] and with MOLT-4 [2] were 89% and greater than 100%, respectively. Further, the half-maximal inhibitory concentration (IC50) in the assay with RS4-11 [3], in the assay on MOLT-4 [4] and with MM1.S was greater than 10000 nM each time.

Regarding `O=C(COc1ccccc1-c1cccc2c1CN(C1CCC(=O)NC1=O)C2=O)N/N=C/c1cn(S(=O)(=O)c2ccccc2)c2ccccc12` (centres undefined), the viability at 1 µM in the assay with RS4-11 [1] was 15%; with MOLT-4 [2], 43%. The viability at 0.5 µM in the assay on RS4-11 [5] came out at 5%. Besides, the viability at 0.1 µM with RS4-11 [6] came out at 52%. In addition, the IC50 was 7 nM in the assay with RS4-11 [3], 175 nM with MOLT-4 [4] and 131 nM in the assay on MM1.S. For the same compound, the Activity in [7] was 100%; in assay [8], 100%; in assay [9], “Dose-Dependent Effect”; in assay [10], “Tde”; in assay [12], greater than 50%. For the same compound, the DC50 in assay [11] came out at 154 nM. Besides, the outcome in assay [13] was Active.

Take `O=C1CCC(N2Cc3cc(CNC(=O)C(F)(F)c4ccc(Cl)cc4)ccc3C2=O)C(=O)N1` (centres undefined): in the assay with RS4-11 [3], the IC50 is 0.1 nM.

As to `CN1CCN(c2ncc(/C=N/NC(=O)COc3ccccc3-c3cccc4c3CN(C3CCC(=O)NC3=O)C4=O)s2)CC1` (centres undefined), the viability at 1 µM came out at 24% with RS4-11 [1] and 66% with MOLT-4 [2]. In the assay with RS4-11 [5], the viability at 0.5 µM was determined as 23%. Moreover, the viability at 0.1 µM in the assay on RS4-11 [6] was determined as 56%. For the same compound, the IC50 in the assay on RS4-11 [3] was 71 nM; in the assay on MOLT-4 [4] it was greater than 1000 nM; with MM1.S it was greater than 10000 nM.

On to `CN1C(=O)CCC(N2Cc3c(cccc3-c3ccccc3OCC(=O)N/N=C/c3nn(Cc4ccccc4)c4ccccc34)C2=O)C1=O` (centres undefined), for which the values for the viability at 1 µM with RS4-11 [1] and in the assay with MOLT-4 [2] were 98% and greater than 100%, respectively. Also, the IC50 in the assay on RS4-11 [3], with MOLT-4 [4] and with MM1.S was greater than 1000 nM throughout.

As to `CN1C(=O)CCC(N2Cc3c(cccc3-c3ccccc3OCC(=O)N/N=C/c3cn(S(=O)(=O)c4ccccc4)c4ccccc34)C2=O)C1=O` (centres undefined), the values for the viability at 1 µM with RS4-11 [1] and in the assay on MOLT-4 [2] were 97% and greater than 100%, respectively. Besides, the results for the IC50 in the assay on RS4-11 [3], in the assay with MOLT-4 [4] and in the assay on MM1.S were greater than 1000 nM, greater than 1000 nM and greater than 10000 nM, respectively.

`O=C(COc1ccccc1-c1cccc2c1CN(C1CCC(=O)NC1=O)C2=O)NCCc1cn(S(=O)(=O)c2ccccc2)c2ccccc12` (centres undefined): the DC50 in [11] came to 168 nM.

Take `O=C(COc1ccccc1-c1cccc2c1CN(C1CCC(=O)NC1=O)C2=O)NCc1nn(Cc2ccccc2)c2ccccc12` (centres undefined): the DC50 in [11] worked out at 785 nM.

`Cc1nc2ccccn2c1/C=N/NC(=O)COc1ccccc1-c1cccc2c1CN(C1CCC(=O)NC1=O)C2=O` (centres undefined): the viability at 1 µM in the assay on RS4-11 [1] came to 25%; in the assay with MOLT-4 [2], 52%. Also, the viability at 0.5 µM in the assay with RS4-11 [5] was 15%. The viability at 0.1 µM in the assay on RS4-11 [6] worked out at 46%. Also, the IC50 in the assay on RS4-11 [3] is 7 nM; with MOLT-4 [4] it was greater than 10000 nM; with MM1.S it was greater than 10000 nM.

Consider `O=C(COc1ccccc1-c1cccc2c1CN(C1CCC(=O)NC1=O)C2=O)NCc1cn(S(=O)(=O)c2ccccc2)c2ccccc12` (centres undefined), for which the 50% degradation concentration (DC50) in assay [11] is 166 nM.

As for `O=C(COc1ccccc1-c1cccc2c1CN(C1CCC(=O)NC1=O)C2=O)N/N=C/c1nn(Cc2ccccc2)c2ccccc12` (centres undefined), the viability at 1 µM in the assay with RS4-11 [1] was 11%; with MOLT-4 [2], 7%. Besides, the viability at 0.5 µM in the assay with RS4-11 [5] worked out at 6%. Moreover, the viability at 0.1 µM in the assay on RS4-11 [6] was found to be 86%. Besides, the IC50 worked out at 2 nM with RS4-11 [3], 260 nM in the assay on MOLT-4 [4] and 370 nM with MM1.S. Moreover, the Activity in assay [7] is 100%; in assay [8], 100%; in assay [9], “Dose-Dependent Effect”; in assay [10] it was “Tde”; in [12] it was greater than 50%. The DC50 in assay [11] stood at 50 nM. Also, in assay [13], the result was Active.

By IC50 is commonly meant the point on the concentration scale where inhibition reaches its midpoint. Broadly, the DC50 is the midpoint of the concentration-degradation curve.
